Reference: patent US9163008B2, “Pyrimidines as sodium channel blockers” (Purdue Pharma, L.P., priority 2011, dated 2015)
Like-named read-outs stand apart in the source and are kept apart here.

What was measured:
human Nav1.7 = human Nav1.7 (Homo sapiens (Human), UniProt Q15858); assay: FLIPR sodium dye assay (CoroNa Green) with KCl and test article pre-incubation; assay type: cell-based; conditions: read-out: Nav1.7 Activity FLIPR assay IC50
hNav1.7 = hNav1.7 (Homo sapiens (Human), UniProt Q15858); assay: Electrophysiology (EP) whole-cell patch clamp assay; assay type: cell-based; conditions: for Ki: read-out: Nav1.7 Activity EP assay Ki; for Kd: resting block dissociation constant, read-out: Nav1.7 Activity EP assay Kr
Sequence of hNav1.7 (Q15858 other isoform, or with tags, fused parts or gaps): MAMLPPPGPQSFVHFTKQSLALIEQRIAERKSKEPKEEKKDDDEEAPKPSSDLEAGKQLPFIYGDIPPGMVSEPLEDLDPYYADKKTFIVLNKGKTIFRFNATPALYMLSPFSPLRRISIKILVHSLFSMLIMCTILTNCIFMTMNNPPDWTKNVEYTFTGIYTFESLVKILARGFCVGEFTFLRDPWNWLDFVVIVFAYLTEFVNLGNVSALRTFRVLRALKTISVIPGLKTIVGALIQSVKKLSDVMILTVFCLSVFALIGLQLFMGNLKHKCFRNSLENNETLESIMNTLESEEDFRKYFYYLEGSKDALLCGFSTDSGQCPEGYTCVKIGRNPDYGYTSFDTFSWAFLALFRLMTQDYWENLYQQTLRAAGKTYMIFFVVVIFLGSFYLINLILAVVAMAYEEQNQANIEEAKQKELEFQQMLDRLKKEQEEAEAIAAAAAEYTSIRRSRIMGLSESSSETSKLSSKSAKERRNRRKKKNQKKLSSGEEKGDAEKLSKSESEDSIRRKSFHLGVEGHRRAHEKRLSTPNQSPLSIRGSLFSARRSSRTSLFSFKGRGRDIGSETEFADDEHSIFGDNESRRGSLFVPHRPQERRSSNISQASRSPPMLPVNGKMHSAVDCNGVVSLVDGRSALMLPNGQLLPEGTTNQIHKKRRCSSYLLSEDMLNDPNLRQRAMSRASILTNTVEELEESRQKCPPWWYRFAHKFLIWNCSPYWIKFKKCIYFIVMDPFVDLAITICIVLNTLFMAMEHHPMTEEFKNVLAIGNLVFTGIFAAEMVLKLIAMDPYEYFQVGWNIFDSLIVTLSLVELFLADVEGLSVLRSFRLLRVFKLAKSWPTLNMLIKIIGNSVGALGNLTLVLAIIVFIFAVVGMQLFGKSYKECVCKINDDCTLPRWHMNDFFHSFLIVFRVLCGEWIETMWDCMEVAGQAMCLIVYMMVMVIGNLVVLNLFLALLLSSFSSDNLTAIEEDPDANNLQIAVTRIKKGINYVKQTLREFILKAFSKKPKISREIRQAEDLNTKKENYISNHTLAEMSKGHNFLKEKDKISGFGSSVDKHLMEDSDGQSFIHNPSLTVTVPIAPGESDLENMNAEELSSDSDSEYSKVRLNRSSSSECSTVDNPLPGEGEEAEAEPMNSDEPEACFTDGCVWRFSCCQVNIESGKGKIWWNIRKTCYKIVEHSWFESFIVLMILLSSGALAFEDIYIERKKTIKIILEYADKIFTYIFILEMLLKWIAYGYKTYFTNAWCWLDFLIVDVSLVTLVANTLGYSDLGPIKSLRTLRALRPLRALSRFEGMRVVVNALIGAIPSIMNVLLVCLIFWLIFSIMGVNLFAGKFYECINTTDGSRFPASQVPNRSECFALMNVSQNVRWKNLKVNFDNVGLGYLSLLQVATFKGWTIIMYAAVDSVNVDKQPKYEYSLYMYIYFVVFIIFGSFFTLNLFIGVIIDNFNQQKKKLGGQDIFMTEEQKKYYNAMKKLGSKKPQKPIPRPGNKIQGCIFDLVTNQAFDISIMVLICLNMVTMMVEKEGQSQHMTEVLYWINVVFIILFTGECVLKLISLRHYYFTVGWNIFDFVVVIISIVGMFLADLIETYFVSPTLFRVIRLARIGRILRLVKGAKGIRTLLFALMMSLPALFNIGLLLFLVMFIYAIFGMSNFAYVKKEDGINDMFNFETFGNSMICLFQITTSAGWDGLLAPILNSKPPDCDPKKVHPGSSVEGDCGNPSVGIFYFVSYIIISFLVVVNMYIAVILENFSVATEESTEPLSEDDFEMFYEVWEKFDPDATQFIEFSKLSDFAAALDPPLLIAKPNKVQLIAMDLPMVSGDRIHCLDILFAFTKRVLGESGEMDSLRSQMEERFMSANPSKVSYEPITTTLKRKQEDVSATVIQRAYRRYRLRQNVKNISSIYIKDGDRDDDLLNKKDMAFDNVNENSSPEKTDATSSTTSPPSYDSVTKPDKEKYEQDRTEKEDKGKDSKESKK
Procedure: The hNav1.7 expressing HEK-293 cells were plated on 35 mm culture dishes pre-coated with poly-D-lysine in standard DMEM culture media (Mediatech, Inc., Herndon, Va.) and incubated in a 5% CO2 incubator at 37° C. Cultured cells were used approximately 12-48 h after plating.
On the day of experimentation, the 35 mm dish was placed on the stage of an inverted microscope equipped with a perfusion system that continuously perfuses the culture dish with fresh recording media. A gravity driven superfusion system was used to apply test solutions directly to the cell under evaluation. This system consists of an array of glass pipette glass connected to a motorized horizontal translator. The outlet of the shooter was positioned approximately 100 μm from the cell of interest.
Gigaseals were formed and the whole-cell configuration was established in voltage clamp mode, and membrane currents generated by hNav1.7 were recorded in gap-free mode. […] Signals were sampled at 50 kHz and low pass filtered at 3 kHz.
To determine a membrane potential at which the majority of channels are in the resting state, a standard steady-state inactivation (SSIN) protocol was run using 100 ms prepulses×10 mV depolarizing steps. The holding potential for testing resting block (Vh1) was 20 mV more hyperpolarized than the first potential where inactivation is observed with the inactivation protocol.
From this holding potential a standard I-V protocol was run to determine the potential at which the maximal current (Imax) was elicited. This potential was the test potential (Vt).
The fractional response was calculated as follows: FR=I(after drug)/I(control),
where I is the peak current amplitude and was used for estimating resting block dissociation constant, Kr: Kr=[drug]*{FR/(1−FR)},
To assess the block of inactivated channels the holding potential was depolarized such that 20-50% of the current amplitude was reduced when pulsed to the same Vt as above. The magnitude of this depolarization depends upon the initial current amplitude and the rate of current loss due to slow inactivation. This was the second holding potential (Vh2). The current reduction was recorded to determine the fraction of available channels at this potential (h). h=I@Vh2/Imax.
At this membrane voltage a proportion of channels are in the inactivated state, and thus inhibition by a blocker includes interaction with both resting and inactivated channels.
To determine the potency of the test compound on inactivated channels, a series of currents were elicited by 10 ms voltage steps from Vh2 to Vt every 10-15 seconds. After establishing a stable baseline, the low concentration of the compound was applied. Multiple cumulative concentrations may have to be applied to identify a concentration that will block between 40-60% of the current. Washout was attempted to re-establish baseline. Fractional responses were measured with respect to a projected baseline to determine Kapp. Kapp=[drug]*{FR/(1−FR)},
This Kapp value, along with the calculated Kr and h values, were used to calculate the affinity of the compound for the inactivated channels (Ki) using the following equation: Ki=(1−h)/((1/Kapp)−(h/Kr)).
Vehicle solution used to establish base line was also contacting 0.3% DMSO.
Data was analyzed off-line using Clampfit software (pClamp, v. 8; Axon Instruments) and graphed using GraphPad Prizm (v. 4.0 or higher) software.

[1] = affinity for inactivated channels, hNav1.7 HEK-293
[2] = recombinant human Nav1.7 in HEK293, veratridine and scorpion venom agonists

Sequence of human Nav1.7 (Q15858 other isoform, or with tags, fused parts or gaps): as above

## C[C@H](Nc1cc(C(N)=O)nc(-c2ccc(Oc3ccc(F)cc3)cc2)n1)C(N)=O [Cpd No. 1, (S)-6-((1-amino-1-oxopropan-2-yl)amino)-2-(4-(4-fluorophenoxy)phenyl)pyrimidine-4-carboxamide]
Human Nav1.7
  IC50: 420 nM
hNav1.7
  Ki: 57 nM
hNav1.7; hNav1.7 HEK-293
  Kd: 4220 nM

## NC(=O)c1cc(N2CCC[C@H]2C(N)=O)nc(-c2ccc(Oc3ccc(F)cc3)cc2)n1 [Cpd No. 5, (S)-6-(2-carbamoylpyrrolidin-1-yl)-2-(4-(4-fluorophenoxy)phenyl)pyrimidine-4-carboxamide]
Human Nav1.7
  IC50: 260 nM
hNav1.7; [1]
  Ki: 78 nM
hNav1.7; hNav1.7 HEK-293
  Kd: 7950 nM

## C[C@H](Nc1cc(C(N)=O)nc(-c2ccc(Oc3ccc(C(F)(F)F)cn3)cc2)n1)C(N)=O [Cpd No. 13, (S)-6-((1-amino-1-oxopropan-2-yl)amino)-2-(4-((5-(trifluoromethyl)pyridin-2-yl)oxy)phenyl)pyrimidine-4-carboxamide]
Human Nav1.7
  IC50: 990 nM
hNav1.7; [1]
  Ki: 420 nM
hNav1.7; hNav1.7 HEK-293
  Kd: 169000 nM

## C[C@@H](Nc1cc(C(N)=O)nc(-c2ccc(Oc3ccc(F)cc3)cc2)n1)C(N)=O [Cpd No. 21, (R)-6-((1-amino-1-oxopropan-2-yl)amino)-2-(4-(4-fluorophenoxy)phenyl)pyrimidine-4-carboxamide]
Human Nav1.7
  IC50: 600 nM
hNav1.7
  Ki: 230 nM
hNav1.7; hNav1.7 HEK-293
  Kd: 7250 nM

## C[C@H](Nc1cc(C(=O)O)nc(-c2ccc(Oc3ccc(F)cc3)cc2)n1)C(N)=O [Cpd No. 35, (S)-6-((1-amino-1-oxopropan-2-yl)amino)-2-(4-(4-fluorophenoxy)phenyl)pyrimidine-4-carboxylic acid]
Human Nav1.7; [2]
  IC50: > 20000 nM
hNav1.7; [1]
  Ki: 20500 nM
hNav1.7; hNav1.7 HEK-293
  Kd: 102000 nM

## C[C@H](Nc1cc(C(=O)O)nc(-c2ccc(Oc3ccc(F)cc3)cc2)n1)C(=O)O [Cpd No. 40, (S)-6-((1-carboxyethyl)amino)-2-(4-(4-fluorophenoxy)phenyl)pyrimidine-4-carboxylic acid]
Human Nav1.7; [2]
  IC50: > 20000 nM
hNav1.7; [1]
  Ki: 41000 nM
hNav1.7; hNav1.7 HEK-293
  Kd: 110000 nM

## NC(=O)c1cc(NC[C@H](O)C(N)=O)nc(-c2ccc(Oc3ccc(F)cc3)cc2)n1 [Cpd No. 50, (S)-6-((3-amino-2-hydroxy-3-oxopropyl)amino)-2-(4-(4-fluorophenoxy)phenyl)pyrimidine-4-carboxamide]
Human Nav1.7; [2]
  IC50: > 20000 nM

## NC(=O)c1cc(NC[C@H](O)C(=O)O)nc(-c2ccc(Oc3ccc(F)cc3)cc2)n1 [Cpd No. 51, (S)-3-((6-carbamoyl-2-(4-(4-fluorophenoxy)phenyl)pyrimidin-4-yl)amino)-2-hydroxypropanoic acid]
Human Nav1.7; [2]
  IC50: > 20000 nM

## C[C@H](Nc1cc(C(N)=O)nc(-c2ccc(Oc3ccc(Cl)cn3)cc2)n1)C(N)=O [Cpd No. 63, (S)-6-((1-amino-1-oxopropan-2-yl)amino)-2-(4-((5-chloropyridine-2-yl)oxy)phenyl)pyrimidine-4-carboxamide]
Human Nav1.7
  IC50: 790 nM
hNav1.7; [1]
  Ki: 600 nM
hNav1.7; hNav1.7 HEK-293
  Kd: 28000 nM

## C[C@H](Nc1cc(C(N)=O)nc(-c2ccc(Oc3ccc(Cl)cc3F)cc2)n1)C(N)=O [Cpd No. 64, (S)-6-((1-amino-1-oxopropan-2-yl)amino)-2-(4-(4-chloro-2-fluorophenoxy)phenyl)pyrimidine-4-carboxamide]
Human Nav1.7
  IC50: 180 nM
hNav1.7; [1]
  Ki: 16 nM
hNav1.7; hNav1.7 HEK-293
  Kd: 730 nM

## C[C@H](Nc1cc(C(N)=O)nc(-c2ccc(O)cc2)n1)C(N)=O [Cpd No. 65, 6-((S)-1-Carbamoyl-ethylamino)-2-(4-hydroxy-phenyl)-pyrimidine-4-carboxylic acid amide]
Human Nav1.7
  IC50: > 20000 nM

## C[C@H](Nc1cc(C(N)=O)nc(-c2ccc(Oc3ccc(C#N)cc3)cc2)n1)C(N)=O [Cpd No. 66, 6-((S)-1-Carbamoyl-ethylamino)-2-[4-(4-cyano-phenoxy)-phenyl]-pyrimidine-4-carboxylic acid amide]
Human Nav1.7; [2]
  IC50: 410 nM

## C[C@H](Nc1cc(C(N)=O)nc(Oc2ccc(Cl)cc2-c2ccnc(N)c2)n1)C(N)=O [Cpd No. 67, (S)-6-((1-amino-1-oxopropan-2-yl)amino)-2-(2-(2-aminopyridin-4-yl)-4-chlorophenoxy)pyrimidine-4-carboxamide]
Human Nav1.7; [2]
  IC50: > 20000 nM

## C[C@H](Nc1cc(C(N)=O)nc(-c2ccnc(Oc3ccc(F)cc3)c2)n1)C(N)=O [Cpd No. 68, (S)-6-((1-amino-1-oxopropan-2-yl)amino)-2-(2-(4-fluorophenoxy)pyridin-4-yl)pyrimidine-4-carboxamide]
Human Nav1.7; [2]
  IC50: > 20000 nM

## C[C@H](Nc1cc(C(N)=O)nc(N2CCN(C(c3ccc(F)cc3)c3ccc(F)cc3)CC2)n1)C(N)=O [Cpd No. 71, (S)-6-((1-amino-1-oxopropan-2-yl)amino)-2-(4-(bis(4-fluorophenyl)methyl)piperazin-1-yl)pyrimidine-4-carboxamide]
Human Nav1.7; [2]
  IC50: > 20000 nM

## C[C@H](Nc1cc(C(N)=O)nc(Oc2ccc(C(F)(F)F)cc2-c2ccnnc2)n1)C(N)=O [Cpd No. 72, (S)-6-((1-amino-1-oxopropan-2-yl)amino)-2-(2-(pyridazin-4-yl)-4-(trifluoromethyl)phenoxy)pyrimidine-4-carboxamide]
Human Nav1.7
  IC50: 1420 nM

## NC(=O)c1cc(N2CCC[C@H]2C(N)=O)nc(-c2ccc(Oc3ccc(C(F)(F)F)cc3)cc2)n1 [Cpd No. 91, (S)-6-(2-carbamoylpyrrolidin-1-yl)-2-(4-(4-(trifluoromethyl)phenoxy)phenyl)pyrimidine-4-carboxamide]
Human Nav1.7
  IC50: 200 nM

## NC(=O)c1cc(N2c3ccccc3C[C@H]2C(N)=O)nc(-c2ccc(Oc3ccc(F)cc3)cc2)n1 [Example 36]
Human Nav1.7; [2]
  IC50: > 20000 nM

## C[C@H](Nc1cc(C(N)=O)nc(N2CCC3(CC2)Cc2ccccc2C3)n1)C(N)=O [compound 73, (S)-6-((1-amino-1-oxopropan-2-yl)amino)-2-(1,3-dihydrospiro[indene-2,4′-piperidin]-1′-yl)pyrimidine-4-carboxamide]
Human Nav1.7
  IC50: 1800 nM

## NC(=O)c1cc(N2CCC[C@H]2C(N)=O)nc(-c2ccc(Oc3ccc(Cl)cc3F)cc2)n1 [compound 78, (S)-6-(2-carbamoylpyrrolidin-1-yl)-2-(4-(4-chloro-2-fluorophenoxy)phenyl)pyrimidine-4-carboxamide]
Human Nav1.7
  IC50: 120 nM

## C[C@H](Nc1cc(C(N)=O)nc(N2CCC(Oc3ccc(C#N)cc3)CC2)n1)C(N)=O [compound 100, (S)-6-((1-amino-1-oxopropan-2-yl)amino)-2-(4-(4-cyanophenoxy)piperidin-1-yl)pyrimidine-4-carboxamide]
Human Nav1.7; [2]
  IC50: 4570 nM
